Key:
Format in all cases: cell-based
[1] = system: murine RAW264.7 macrophages; test: Immunoblots of ATMS1981*, ATM, IRF5 and NOX2 expression in murine RAW264.7 macrophages; conditions: for ATM activation (ATMS1981*) by the agent / IRF5 expression induced by the agent: 24 hours, 10 μM CDDP, 200 ng/ml NCZ, 10 μM Olaparib (FIGS. 3E, 3H-3J)
Procedure: (§1) The human monocyte cell line THP1 cells and the murine macrophage-like RAW264.7 cells were maintained in RMPI-1640-Glutamax medium (Life technology) supplemented with 10% heat-inactivated fetal bovine serum (Hycultec GmbH) and 100 UI/ml penicillin-streptomycin (Life technology). To obtain THP1 macrophages, THP1 monocytes were differentiated with 320 nM of PMA (Invivogen) during 24 h. Then, cells were washed three times to remove PMA and non-adherent cells. For the generation of monocytes-derived macrophages (hMDM), buffy coats from healthy donor blood were obtained from the French blood bank (Etablissement Français du Sang) under the control of convention with the INSERM. In accordance with French law, written informed consent for the use of cells for clinical research was obtained from each donor. Monocytes were obtained from buffy coats and were differentiated into macrophages by using human AB serum in macrophage medium, as previously described. […] All cells were maintained under 5% CO2 humidified atmosphere at 37° C. For hypoxic experiments, cells were incubated in the hypoxic hood (Scitive) under 1% 02, with 5% CO2 humidified atmosphere at 37° C. Dimethyl Sulfoxide (DMSO), Lipopolysaccharides (LPS), Dimethyloxalylglycine (DMOG), NAcetyl-L-cysteine (NAC), Diphenyleneiodonium chloride (DPI), Neocarzinostatin (NCZ), cis-Diammineplatinum(II) dichloride (CDDP) were purchased from Sigma-Aldrich. Recombinant murine IFN-γ (mIFN-γ) was obtained from PeproTech Recombinant Human IFN-γ was from R&D Systems. KU55933 was from Tocris Bioscience. Mn(III)tetrakis (4-benzoic acid) porphyrin Chloride (MnTBAP) was from Calbiochem. Olaparib was from Selleckchem. Phorbol 12-myristate 13-acetate (PMA) was from Invivogen.
(§2) Human MDM (10^6) were activated by treatment with […] recombinant human IFN-γ for 24 h. THP1 monocytes were differentiated into macrophages by 320 nM PMA for 24 h. Then, macrophages were activated with 20 ng/ml recombinant human IFN-γ or 100 ng/ml LPS during 24 h. RAW264.7 macrophages were activated with 20 ng/ml recombinant murine IFN-γ or 100 ng/ml LPS for 24 h.
(§3) Cells were seeded in 6-well plates, 12-well plates or 25 cm^2 flasks and irradiated with gamma-ray irradiator IBL-637 (Cs137, 1 Gy/min, gamma CIS-Bio International, IBA, Saclay, France) or with X-ray irradiator (1Gy/min, X-RAD 320, Precision X-Ray). Cells were harvested at indicated time points (hMDMs and THP1 macrophages at 96 h, RAW264.7 macrophages at 6 h) after irradiation for subsequent experiments.
(§4) Cells were washed twice with cold PBS and lysed with NEHN buffer (0.5% NP40, 20% Glycerol, 300 mM NaCl, 20 mM Herps, pH 7.5, and 1 mM EDTA) complemented with 2.5 mM DTT and the protease and phosphatase inhibitor (Roche) at 4° C. 5-20 μg of proteins were separated by NuPAGE 4-12% or 10% SDS-PAGE gel (Invitrogen) and then were transferred onto a nitrocellulose membrane (0.2 Micron, Bio-Rad). Membranes were blocked with 5% nonfat milk or 5% Bovine Serum Albumine (BSA) in Tris-buffered saline and 0.1% Tween 20 (TBS-T) at room temperature for 1 h and then subsequently probed with primary antibodies (1/5000-1/1000) overnight at 4° C. Then, membranes were incubated with appropriate horseradish peroxidase-conjugated anti-rabbit or anti-mouse IgG (SouthernBiotech) for 1 h at room temperature.

hMDM = test: Immunoblots of ATMS1981*, ATM, IRF5 and NOX2 expression in human monocyte-derived macrophages (hMDM)
Procedure: as §1, with “Dimethyl Sulfoxide (DMSO), Lipopolysaccharides (LPS), Dimethyloxalylglycine (DMOG), NAcetyl-L-cysteine (NAC), Diphenyleneiodonium chloride (DPI), Neocarzinostatin (NCZ), cis-Diammineplatinum(II) dichloride (CDDP) were purchased from Sigma-Aldrich. Recombinant murine IFN-γ (mIFN-γ) was obtained from PeproTech Recombinant Human IFN-γ was from R&D Systems. KU55933 was from Tocris Bioscience. Mn(III)tetrakis (4-benzoic acid) porphyrin Chloride (MnTBAP) was from Calbiochem. Olaparib was from Selleckchem. Phorbol 12-myristate 13-acetate (PMA) was from Invivogen.” left out

macrophages = test: Macrophage viability (LDH release); conditions: data not shown; cells and concentrations as in the activation experiments
From the text: The release of LDH in the supernatants of cultured cells was detected using Cytotoxicity Detection KitPLUS (LDH) from Roche according to the manufacturers' instructions.

[2] = system: murine RAW264.7 macrophages; test: Detection of ROS production (H2DCFDA staining, flow cytometry); conditions: for ROS production after IR or mIFN-γ in presence of the inhibitor: 2 Gy single dose or 20 ng/ml mIFN-γ, NAC 1 μg/ml, DPI 200 nM
Procedure: Hydrogen peroxide and anion superoxide production were determined by staining cells with 5 μM of 2,7-dichlorodihydrofluorescein diacetate (H2DCFDA, Sigma) for 40 min at 37° C. Cells were then washed twice with Hanks' balanced salt solution (HBSS, from Thermo Fisher Scientific) and suspended in cold HBSS solution containing 1% FBS for FACS analysis.
Considering that reactive oxygen species (ROS) have been involved in both ATM activation and macrophage differentiation, the role of ROS production during macrophage activation was investigated.

[3] = system: PMA-treated human THP1 monocytes; test: Immunoblots of ATMS1981*, ATM, IRF5 and NOX2 expression in PMA-treated human THP1 monocytes; conditions: for ATM activation (ATMS1981*) by the agent / IRF5 expression induced by the agent: 24 hours, 20 ng/ml human IFN-γ, 100 ng/ml LPS, 10 μM CDDP (FIGS. 3D, 3F, 3G)
Procedure: as §1, §2, §3, §4

[4] = system: murine RAW264.7 macrophages; test: Confocal immunofluorescence of DNA damage-associated nuclear foci; conditions: 24 h treatment; 20 ng/ml mIFN-γ, 100 ng/ml LPS or 10 μM CDDP (FIGS. 3A-3C)
Procedure: Cells were grown on coverslips and were treated as indicated. After treatment, cells were rinsed twice, fixed with 10% neutral buffered formalin (Sigma-Aldrich) for 10 min and then permeabilized with 0.3% Triton X-100 in PBS for 15 min. Cells were then washed twice with PBS and were blocked with 10% FBS in PBS for 1 h at room temperature, followed by incubation with primary antibodies (1/100) in 10% FBS in PBS for 1 h30 min at room temperature. Then, samples were incubated with secondary antibodies using Alexa Fluor-488 green or Alexa Fluor-546 red (1/500, Life Technologies) and Hoechst 33342 for nuclei (1/1000, Thermo Fisher Scientific) in 10% FBS in PBS for 30 min at room temperature. Coverslips were mounted with Fluoromount-G (SouthernBiotech) ant then visualized with Leica TCS SPE confocal microscope (Leica Microsystemes, France).

[5] = 1 μg/ml NAC, 2 Gy, 6 hours or 20 ng/ml mIFN-γ, 24 hours (FIGS. 4E, 4F)
[6] = 10 μM MnTBAP, 8 Gy single dose, 48 hours (FIG. 4G)
[7] = 10 μM Olaparib, 2 Gy, 6 hours (FIG. 2P)

## O=c1cc(-c2cccc3c2Sc2ccccc2S3)oc(N2CCOCC2)c1 [KU55933]
[1]; 20 μM KU55933, 2 Gy single dose, 6 hours (FIG. 2N)
  γ-H2AX and ATMS1981* phosphorylations and the up-regulation of IRF5 expression after irradiation: impaired
hMDM; 10 μM KU55933, 4 Gy single dose, 96 hours (FIG. 2O)
  γ-H2AX and ATMS1981* phosphorylations and the up-regulation of IRF5 expression after irradiation: impaired
macrophages
  macrophage viability: without altering macrophage viability

## CC(=O)N[C@@H](CS)C(=O)O [NAC, NAcetyl-L-cysteine]
[1]; [5]
  activating phosphorylation of ATM (ATMS1981*) after IR or mIFN-γ: inhibited
  increased expression of IRF5 after IR or mIFN-γ: reduced
[2]
  ROS production after IR or mIFN-γ in presence of the inhibitor: blunted the ROS production
macrophages
  macrophage viability: without impacting macrophage viability

## O=C(O)c1ccc(C2=C3C=CC(=N3)C(c3ccc(C(=O)O)cc3)=c3ccc([nH]3)=C(c3ccc(C(=O)O)cc3)c3ccc([n-]3)C(c3ccc(C(=O)O)cc3)c3ccc2[n-]3)cc1.[Cl-].[Mn+3] (stereo not drawn) [MnTBAP, Mn(III)tetrakis (4-benzoic acid) porphyrin Chloride]
[3]; [6]
  activating phosphorylation of ATM (ATMS1981*) after IR: inhibited
  increased expression of IRF5 after IR: reduced
[2]
  ROS production after IR or mIFN-γ in presence of the inhibitor: blunted the ROS production
macrophages
  macrophage viability: without impacting macrophage viability

## O=C(c1cc(Cc2n[nH]c(=O)c3ccccc23)ccc1F)N1CCN(C(=O)C2CC2)CC1 [Olaparib]
[1]; [7]
  ATM activation after irradiation: enhancement of ATM activation
  IRF5 expression after irradiation (inflammatory macrophage activation elicited by IR): increased expression of IRF5
[1]; 20 ng/ml mIFN-γ
  ATM activation (ATMS1981*) by the agent: activated ATM
  IRF5 expression induced by the agent: increased IRF5 expression

## N.N.[Cl][Pt][Cl] [Cisplatin, cis-Diammineplatinum(II) dichloride]
[1]; 20 ng/ml mIFN-γ
  ATM activation (ATMS1981*) by the agent: activated ATM
  IRF5 expression induced by the agent: increased IRF5 expression
[3]
  ATM activation (ATMS1981*) by the agent: activated ATM
  IRF5 expression induced by the agent: increased IRF5 expression
[4]
  ATMS1981*+ and γ-H2AX+ nuclear foci: activated ATM

## COC(=O)CNC(=O)C(=O)OC [DMOG, Dimethyloxalylglycine]
[1]; 500 μM DMOG, 20 ng/ml mIFN-γ, 24 hours (FIG. 4K)
  ATMS1981* and IRF5 expressions reduced after mIFN-γ stimulation: confirmed
[1]; 500 μM DMOG, 2 Gy single dose, 6 hours (FIG. 4I)
  IR-mediated ATMS1981* and IRF5 expressions: reduced

## Neocarzinostatin
[1]; 20 ng/ml mIFN-γ
  ATM activation (ATMS1981*) by the agent: activated ATM
  IRF5 expression induced by the agent: increased IRF5 expression

## c1ccc2c(c1)[I+]c1ccccc1-2 [DPI, Diphenyleneiodonium chloride]
[1]; 200 nM DPI, 2 Gy, 6 hours or 20 ng/ml mIFN-γ, 24 hours (FIGS. 5L, 5M)
  ATMPS1981* and IRF5 up-regulation after IR or mIFN-γ: impaired
[2]
  ROS production after IR or mIFN-γ in presence of the inhibitor: impaired
macrophages
  macrophage viability: without modifying macrophage viability

B1: mIFN-γ: Recombinant murine IFN-γ from PeproTech, classical macrophage activator (protein, UniProt P01580 23-155, looked up)
Interferon gamma: HGTVIESLESLNNYFNSSGIDVEEKSLFLDIWRNWQKDGDMKILQSQIISFYLRLFEVLKDNQAISNNISVIESHLITTFFSNSKAKKDAFMSIAKFEVNNPQVQRQAFNELIRVVHQLLPESSLRKRKRSRC
[1]; 20 ng/ml mIFN-γ, 24 hours (FIG. 5E)
  NOX2 up-regulated (immunoblot): confirmed
[1]; 20 ng/ml mIFN-γ
  ATM activation (ATMS1981*) by the agent: activation of ATM
  IRF5 expression induced by the agent: increased expression of IRF5
[2]; 20 ng/ml mIFN-γ (FIGS. 4C, 4D)
  ROS production induced by the treatment: induced ROS production
[4]
  ATMS1981*+ and γ-H2AX+ nuclear foci: accumulation of ATMS1981*+ and γ-H2AX+ foci

B2: IFN-γ: Recombinant Human IFN-γ from R&D Systems, classical macrophage activator (protein, UniProt P01579 24-161, looked up)
Interferon gamma: QDPYVKEAENLKKYFNAGHSDVADNGTLFLGILKNWKEESDRKIMQSQIVSFYFKLFKNFKDDQSIQKSVETIKEDMNVKFFNSNKKKRDDFEKLTNYSVTDLNVQRKAIHELIQVMAELSPAAKTGKRKRSQMLFRG
hMDM; 4 μg/ml hIFN-γ, 24 hours (FIG. 5B)
  NOX2 up-regulated (immunoblot): confirmed
[3]; 20 ng/ml hIFN-γ, 24 hours (FIG. 5C)
  NOX2 up-regulated (immunoblot): confirmed
[3]
  ATM activation (ATMS1981*) by the agent: activation of ATM
  IRF5 expression induced by the agent: increased expression of IRF5

Source: patent publication US11603568B2, “NOX2 as a biomarker of radiotherapy efficiency in cancer patients” (Institut Gustave-Roussy, priority 2016, dated 2023)
